# “Also recorded” adds a separate entry of the source.
# Tests used:
# Type in all cases: cell-based
# [1] = system: haematopoietic progenitor cells (iPSC derived CD34+ cells); assay: Viability and proliferation of HPCs / iPro T cells cultured with pyrimidoindole compound (cell counts, NC-250); details: for viability of cells: UM729 0.25 μM to 1.0 μM (up to 1 μM)
# Experimental: iPSC cells (HCP1324_c1A12) were differentiated to day 16, using our in-house Proprietary media. HPC (CD34+ cells) were isolated using MACS and a cryopreserved bank of these cells was created for further differentiation into iT-Cells. HPC were then thawed and seeded at 5000 cells per cm^2 in 1 ml of lymphoid progenitor (stage 4; LP) media on the standard SCT's coating (2.5 μL/cm^2). UM729 was added to the culture media in a range of concentrations from 0.25 μM-5 μM. On day 3, 1 mL of LP media with the required concentration of UM729 was added and further demi-media changes were carried out every 3 days, with the required media concentration. Every 14 days cells were removed from culture and counted using NC-250. The cells were then replated on to fresh SCT matrix and UM729 was added to the media at the relevant concentration. Cells were removed from the cultures after 21, 35 and 42 days and phenotyped using the panel in Table 1. At these timepoints cells were either continued on in lymphoid progenitor media with the relevant UM729 concentrations or transferred into T cell maturation conditions. On day 21, 35 and 42 of culture iPro T Cells were seeded onto fresh SCT matrix (2.5 μl/cm^2) at a density of 250,000 cells per cm^2. Cells were cultured in T-Cell maturation media either with or without UM729 (0.25-5 μM), with demi-media changes every 3 days for 2 weeks. After 2 weeks of maturation the cells were counted using the NC-250 and phenotyped by flow cytometry using the panel in Table 1.
# [2] = system: haematopoietic progenitor cells (iPSC derived CD34+ cells); assay: Flow cytometry phenotyping of HPCs differentiated in lymphoid progenitor (stage 4) medium with pyrimidoindole compound
# Experimental: (§1) HPC were then thawed and seeded at 5000 cells per cm^2 in 1 ml of lymphoid progenitor (stage 4; LP) media on the standard SCT's coating (2.5 μL/cm^2). UM729 was added to the culture media in a range of concentrations from 0.25 μM-5 μM. On day 3, 1 mL of LP media with the required concentration of UM729 was added and further demi-media changes were carried out every 3 days, with the required media concentration. Every 14 days cells were removed from culture and counted using NC-250. The cells were then replated on to fresh SCT matrix and UM729 was added to the media at the relevant concentration. Cells were removed from the cultures after 21, 35 and 42 days and phenotyped using the panel in Table 1. At these timepoints cells were either continued on in lymphoid progenitor media with the relevant UM729 concentrations or transferred into T cell maturation conditions. On the day of the assay, the cells were counted, washed twice in FACS Buffer and phenotyped by flow cytometry for T-cell markers.
# iPro T cells [3] = assay: Expansion of iPro T cells in stage 4 medium; details: UM729 0.25 μM to 1.0 μM in stage 4 medium, up to 42 days
# Experimental: as §1, with “conditions.” for “conditions. On the day of the assay, the cells were counted, washed twice in FACS Buffer and phenotyped by flow cytometry for T-cell markers.”
# iPro T cells [4] = assay: T cell maturation in stage 5 medium after stage 4 pre-treatment, flow cytometry; details: pre-treated with UM729 21 days in stage 4 medium, then 14 days stage 5 medium without UM729
# Experimental: On day 21, 35 and 42 of culture iPro T Cells were seeded onto fresh SCT matrix (2.5 μl/cm^2) at a density of 250,000 cells per cm^2. Cells were cultured in T-Cell maturation media either with or without UM729 (0.25-5 μM), with demi-media changes every 3 days for 2 weeks. After 2 weeks of maturation the cells were counted using the NC-250 and phenotyped by flow cytometry using the panel in Table 1. On the day of the assay, the cells were counted, washed twice in FACS Buffer and phenotyped by flow cytometry for T-cell markers.
# iPro T cells [5] = assay: Recovery of iPro T cells from freeze/thaw and culture in stage 5 medium; details: pre-treated with UM729 at 1 μM in stage 4 medium; 7 days in stage 5 medium
# [6] = UM729 5.0 μM or higher, 21 days
# [7] = UM729 0.25 μM to 1.0 μM in stage 4 media, 21 days
# [8] = UM729 0.25 μM to 1.0 μM, 21 days
# [9] = UM729 0.25 μM to 1.0 μM, 35 days (UM729 also in stage 5 cultures)
compound,measurement,setting,value
"COC(=O)c1ccc2c(c1)[nH]c1ncnc(NCCCN3CCCCC3)c12 [UM729, methyl 4-(3-piperidin-1-ylpropylamino)-9H-pyrimido[4,5-b]indole-7-carboxylate]",viability of cells,[1]; 21 days,maintain viability; also recorded: not to affect the viability
same,viability of cells,[1]; 35 days,not to affect the viability; also recorded: maintain viability
same,proliferation of total cells,[1]; [6],reduced or ceases; also recorded: ceased
same,viability of total cells,[1]; [6],reduced or ceases; also recorded: comparably low
same,cytotoxic effects,[1]; UM729 at concentrations of 5 μM and above,cytotoxic effects were observed
same,differentiation into / yield of CD7+CD5+ iPro T cells (FIG. 4A),[2]; [7],promotes differentiation into iProT cells; also recorded: increase the yield
same,percentage of CD7+CD5+ iPro T cells (FIG. 4B),[2]; [7],enriches the percentage of iProT cells; also recorded: enrich the percentage
same,fraction of CD8+CD4+ double positive cells (further differentiation to DP T cells),"[2]; UM729 0.25 μM to 1.0 μM in stage 4 medium, 21 days",decreases the fraction of CD8+CD4+ double positive cells; also recorded: inhibited further differentiation
same,lymphoid fraction of the cells,[2]; [8],increases the lymphoid fraction
same,myeloid fraction of the cells (myeloid cellular contamination),[2]; [8],reduces the myeloid fraction; also recorded: reduce this cellular contamination in a dose dependent manner
same,differentiation into / percentage of CD7+CD5+ iPro T cells (FIG. 7),[2]; [9],increasing; also recorded: promotes differentiation into iProT cells
same,fraction / development of CD8+CD4+ double positive cells (FIG. 8),[2]; [9],inhibited in a dose dependent manner; also recorded: decreases the fraction of CD8+CD4+ double positive cells
same,expansion of iPro T cells (FIG. 9),iPro T cells [3],supported over 42 days; also recorded: greatly enhances the expansion of iProT cells
same,differentiation to CD4+CD8+ double positive T cells after removal of UM729 (FIG. 10),iPro T cells [4],found to be removed; also recorded: will become CD4+CD8+ double positive
same,cell proliferation after culture in stage 5 medium (FIG. 12B),iPro T cells [5],increased cell proliferation
same,viability after culture in stage 5 medium (FIG. 12A),iPro T cells [5],higher viability
